Structures can show the parent of a compound that is named as a salt.

T1 sequence (P26431 whole entry): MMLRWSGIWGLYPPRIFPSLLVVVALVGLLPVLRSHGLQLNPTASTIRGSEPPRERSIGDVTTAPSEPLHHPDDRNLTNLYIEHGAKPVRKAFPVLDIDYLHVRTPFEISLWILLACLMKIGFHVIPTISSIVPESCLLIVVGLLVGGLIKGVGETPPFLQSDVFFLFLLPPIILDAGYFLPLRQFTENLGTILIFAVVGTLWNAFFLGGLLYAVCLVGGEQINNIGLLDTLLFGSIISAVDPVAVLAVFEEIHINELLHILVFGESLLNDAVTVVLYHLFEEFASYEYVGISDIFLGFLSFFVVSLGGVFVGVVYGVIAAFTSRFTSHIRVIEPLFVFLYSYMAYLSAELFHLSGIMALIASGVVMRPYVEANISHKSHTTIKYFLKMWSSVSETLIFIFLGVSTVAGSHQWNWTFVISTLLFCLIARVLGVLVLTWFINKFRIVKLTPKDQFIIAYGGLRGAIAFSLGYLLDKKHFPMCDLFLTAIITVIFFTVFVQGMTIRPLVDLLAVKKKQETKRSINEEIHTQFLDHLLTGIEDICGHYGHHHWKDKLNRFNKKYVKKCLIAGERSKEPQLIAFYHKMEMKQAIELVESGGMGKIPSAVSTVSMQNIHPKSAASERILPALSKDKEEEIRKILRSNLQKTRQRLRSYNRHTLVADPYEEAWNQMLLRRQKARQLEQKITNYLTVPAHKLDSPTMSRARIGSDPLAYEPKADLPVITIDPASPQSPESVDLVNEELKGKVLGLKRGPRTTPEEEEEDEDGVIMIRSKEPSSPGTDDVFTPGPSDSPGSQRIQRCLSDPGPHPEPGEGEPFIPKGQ

One data set addresses T1, Na—H exchange (Rattus norvegicus, UniProt P26431).
T1 construct: The blood was centrifuged at 3000 rpm for 5 seconds to obtain platelet rich plasma (PRP); from tissue; host or cells: platelets in platelet rich plasma from abdominal aortic blood of male Wistar rats
Nature of the data set: Rat platelet swelling in sodium propionate solution (light transmittance of PRP), inhibition of Na—H exchange. The settings on record: 1 min, read-out: Inhibition Rate (%) [10^−7 M]. The data set is classed as cell-based. The protocol:
Male Wistar rats (350-450 g) were anesthetized with sodium pentobarbital (50 mg/kg, i.p.). Using a disposable syringe pre-filled with 1.5 ml of 3.8% citric acid solution, 8.5 ml of blood was collected from the abdominal aorta. The blood was centrifuged at 3000 rpm for 5 seconds to obtain platelet rich plasma (PRP). The number of platelets in the PRP was counted by an automatic hemocytometer (Sysmex 2500, TOA Medical Electronics). The PRP was diluted with physiological saline to make the concentration of 40×10^4 platelets per 1 μl. A platelet aggregometer (Hematoracer, Niko Bioscience) was used for measurement of the platelet swelling. 200 μl of the PRP was poured into a cuvette and 600 μl of sodium propionate solution (Na propionate 135, glucose 10, Hepes 20, CaCl2 1, MgCl2 1; Units: mM; pH6.7) was added while stirring at 37° C. The change in the light transmittance of PRP which was an indicator of the platelet swelling was recorded on a plotter. The test compound was added 3 minutes before addition of the sodium propionate solution. The test compounds were dissolved in dimethylsulfoxide (DMSO).
In the case of `Cc1ccnc2c1C(=NNC(=N)N)CC(c1cc(Cl)sc1Cl)C2` (single isomer, unassigned; (-)) [Compound 109, (−)-7-(2,5-dichlorothiophen-3-yl)-5-guanidinoimino-4-methyl-5,6,7,8-tetrahydroquinoline hydrochloride], the inhibition at 0.1 µM turned out to be 91%.

Still in this data set, the particulars now being: 1 min, test compound 10^−7 M; rat platelet rich plasma; value 1 minute after sodium propionate solution; 100% = difference between 1% DMSO and HOE-642 (10^−5M); read-out: Inhibition Rate (%) [10^−7 M].
In the case of `CCc1n[nH]c2c1C(=NNC(=N)N)CC(c1ccccc1Cl)C2.Cl` (stereo not shown) [Compound 27, 6-(2-chlorophenyl)-3-ethyl-4-guanidinoimino-4,5,6,7-tetrahydroindazole hydrochloride], the inhibition at 0.1 µM was found to be 76%.
On to `Cc1coc2c1C(=NNC(=N)N)CC(c1cccs1)C2.Cl` (stereo not shown) [Compound 48, 4-guanidinoimino-3-methyl-6-(2-thienyl)-4,5,6,7-tetrahydrobenzofuran hydrochloride], for which the inhibition at 0.1 µM came to 70%.
Consider `CCOc1ccnc2c1C(=NNC(=N)N)CC(c1ccccc1Cl)C2` (stereo not shown) [Compound 80, 7-(2-chlorophenyl)-4-ethoxy-5-guanidinoimino-5,6,7,8-tetrahydroquinoline hydrochloride], for which the inhibition at 0.1 µM came to 75%.
For `Cc1n[nH]c2c1C(=NNC(=N)N)CC(c1ccccc1Cl)C2` (stereo not shown) [Compound 21, 4-guanidinoimino-6-(2-chlorophenyl)-3-methyl-4,5,6,7-tetrahydroindazole hydrochloride], the inhibition at 0.1 µM was found to be 72%.
For the compound `Cc1n[nH]c2c1C(=NNC(=N)N)CC(c1cc(Cl)sc1Cl)C2.Cl` (stereo not shown) [Compound 127, 6-(2,5-dichlorothiophen-3-yl)-4-guanidinoimino-3-methyl-4,5,6,7-tetrahydroindazole hydrochloride], the inhibition at 0.1 µM is 98%.
For the compound `Cc1ccnc2c1C(=NNC(=N)N)CC(c1ccccc1F)C2` (stereo not shown) [Compound 59, 7-(2-fluorophenyl)-5-guanidinoimino-4-methyl-5,6,7,8-tetrahydroquinoline hydrochloride], the inhibition at 0.1 µM came out at 72%.
The same measure, in the same setting: the figure for `CCc1cnnc2c1C(=NNC(=N)N)CC(c1cc(Cl)sc1Cl)C2` (stereo not shown) [Compound 134, 7-(2,5-dichlorothiophen-3-yl)-4-ethyl-5-guanidinoimino-5,6,7,8-tetrahydrocinnoline methanesulfonate] is 83%.

The data set is the same for the next values; noted with them: test compound 10^−7 M; rat platelet rich plasma; value 1 minute after sodium propionate solution; 100% = difference between 1% DMSO and HOE-642 (10^−5M).
With `Cc1ccnc2c1C(=NNC(=N)N)CC(c1ccccc1Cl)C2.Cl` (stereo not shown) [Compound 61, 7-(2-chlorophenyl)-5-guanidinoimino-4-methyl-5,6,7,8-tetrahydroquinoline hydrochloride], the “Inhibition Rate (%) [10^−7 M]” value was 78%.

System in the next data set: not given
Test: not given
Settings: not given
Regarding `Cc1ccnc2c1C(=NNC(=N)N)CC(c1ccccc1Cl)C2.Cl` (stereo not shown) [Compound 61, 7-(2-chlorophenyl)-5-guanidinoimino-4-methyl-5,6,7,8-tetrahydroquinoline hydrochloride], the melting point is 204 °C (dec.).
Turning to `CCc1n[nH]c2c1C(=NNC(=N)N)CC(c1ccccc1Cl)C2.Cl` (stereo not shown) [Compound 27, 6-(2-chlorophenyl)-3-ethyl-4-guanidinoimino-4,5,6,7-tetrahydroindazole hydrochloride], the melting point fell in the range of 196 to 200 °C.
Take `Cc1coc2c1C(=NNC(=N)N)CC(c1cccs1)C2.Cl` (stereo not shown) [Compound 48, 4-guanidinoimino-3-methyl-6-(2-thienyl)-4,5,6,7-tetrahydrobenzofuran hydrochloride]: the melting point was 285 °C (dec.).
In the case of `Cc1n[nH]c2c1C(=NNC(=N)N)CC(c1cc(Cl)sc1Cl)C2.Cl` (stereo not shown) [Compound 127, 6-(2,5-dichlorothiophen-3-yl)-4-guanidinoimino-3-methyl-4,5,6,7-tetrahydroindazole hydrochloride], the melting point was not below 300 °C.
`Cc1ncnc2c1/C(=N/NC(=N)N)CC(c1ccccc1Cl)C2.Cl` (stereo not shown): the melting point was 284 °C (dec.).
Consider `Cc1cnnc2c1C(=NNC(=N)N)CC(c1cc(Cl)ccc1F)C2.Cl` (stereo not shown), for which the melting point is not below 300 °C.
As for `Cl.N=C(N)N/N=C1\CC(c2ccccc2)Cc2occ(C(N)=O)c21` (stereo not shown), the melting point was 294 °C (dec.).
Turning to `Cc1ccccc1C1=CC(=NNC(=N)N)c2c(C)ccnc21.Cl`, the melting point is 203 to 204 °C (dec.).
`Cc1ccnc2c1C(=NNC(=N)N)CC(c1cc(F)ccc1O)C2.Cl` (stereo not shown) displayed a melting point of 264 to 266 °C.
`Cc1ccnc2c1C(=NNC(=N)NO)CC(c1ccsc1)C2.Cl` (stereo not shown): the melting point is 201 to 202 °C (dec.).
On to `Cl.N=C(N)NN=C1CC(c2ccccc2Cl)Cc2nncc(-c3ccc(Cl)cc3)c21` (stereo not shown), for which the melting point is 196 °C (dec.).
On the same count and under the same terms, the figure for `CCc1c[nH]c2c1C(=NNC(=N)N)CC(c1ccccc1)C2.Cl` (stereo not shown) is 158 to 160 °C; for `Cc1ccnc2c1C(=NNC(=N)N)CC(c1ccccc1Br)C2.Cl` (stereo not shown) it is 233 °C (dec.); for `Cc1ccnc2c1C(=NNC(=N)N)CC(c1ccsc1)C2.Cl` (stereo not shown) it is not below 300 °C.
For the compound `Cc1cc(=O)[nH]c2c1C(=NNC(=N)N)CC(c1ccsc1)C2.Cl` (stereo not shown), the melting point was not below 300 °C.
`CS(=O)(=O)O.Cc1ccnc2c1C(=NNC(=N)N)CC(c1sc(Cl)cc1Cl)C2` (stereo not shown) [Compound 144]: the melting point lay within 172 to 176 °C.
On to `CCCn1ccc2c1CC(c1ccccc1)CC2=NNC(=N)N.Cl` (stereo not shown), for which the melting point is 155 °C (dec.).
As for `Cc1cn(S(C)(=O)=O)c2c1C(=NNC(=N)N)CC(c1ccccc1F)C2.Cl` (stereo not shown), the melting point was 286 °C (dec.).
Compound `CS(=O)(=O)O.Cc1ccnc2c1C(=NNC(=N)N)CC(c1sc(Cl)cc1Cl)C2` (stereo not shown) [Compound 143] registered a melting point of 168 to 172 °C.
Still for that read-out and setting: the figure for `COc1ccc(Cl)cc1C1CC(=NNC(=N)N)c2c(C)ccnc2C1.Cl` (stereo not shown) is 205 to 209 °C; for `Cc1ccc(C)c(C2CC(=NNC(=N)N)c3c(C)ccnc3C2)c1.Cl` (stereo not shown) it is 260 to 262 °C; for `Cc1coc2c1C(=NNC(=N)N)CC(c1ccccc1)C2.Cl` (stereo not shown) it is 250 °C (dec.).
`Cc1cnnc2c1C(=NNC(=N)NO)CC(c1cc(Cl)sc1Cl)C2.Cl` (stereo not shown) had a melting point of 176 to 178 °C.
Same read-out and setting: the figure for `Cc1coc2c1/C(=N/NC(=N)N)CC(c1cccc(Br)c1)C2.Cl` (stereo not shown) is 285 °C (dec.); for `Cc1n[nH]c2c1C(=NNC(=N)N)CC(c1ccccc1O)C2.Cl` (stereo not shown) it is 168 °C (dec.).
Turning to `Cc1c2c(nn1CCc1ccccc1)CC(c1ccccc1Cl)CC2=NNC(=N)N.Cl` (stereo not shown), the melting point is 185 °C (dec.).
In the case of `Cc1cn(S(C)(=O)=O)c2c1C(=NNC(=N)N)CC(c1ccccc1Cl)C2.Cl` (stereo not shown), the melting point is 258 °C (dec.).
The same measure, in the same setting: the figure for `Cc1ccnc2c1C(=NNC(=N)N)CC(c1ccc(F)cc1F)C2.Cl` (stereo not shown) is 286 °C (dec.).
Take `Cc1coc2c1/C(=N/NC(=N)N)CC(c1ccccc1C(F)(F)F)C2.Cl` (stereo not shown): the melting point is 275 °C (dec.).
Consider `Cl.Cn1ccc2c1CC(c1ccccc1)CC2=NNC(=N)N` (stereo not shown), for which the melting point is 205 °C (dec.).
On to `Cc1cc[n+]([O-])c2c1C(=NNC(=N)N)CC(c1cc(Cl)sc1Cl)C2.Cl` (stereo not shown), for which the melting point is not below 300 °C.
The compound `Cc1ccnc2c1C(=NNC(=N)N)CC(c1ccco1)C2.Cl` (stereo not shown) gave a melting point not below 300 °C.
As for `Cc1c2c(nn1-c1ccccc1)CC(c1ccccc1Cl)CC2=NNC(=N)N.Cl` (stereo not shown), the melting point was 192 to 194 °C.
Take `Cc1ccnc2c1C(=NNC(=N)NO)CC(c1ccccc1Cl)C2.Cl` (stereo not shown): the melting point fell in the range of 185 to 187 °C.
For `CS(=O)(=O)O.N=C(N)NN=C1CC(c2ccccc2Cl)Cc2nncc(C(F)(F)F)c21` (stereo not shown), the melting point is 207 to 208 °C.
In turn, `Cc1cc(=O)[nH]c2c1C(=NNC(=N)N)CC(c1ccccc1Cl)C2.Cl` (stereo not shown) yielded a melting point not below 300 °C.
With `Cc1ccnc2c1C(=NNC(=N)NO)CC(c1ccco1)C2.Cl` (stereo not shown), the melting point is 196 to 198 °C (dec.).
Still for that read-out and setting: the figure for `Cc1ccnc2c1C(=NNC(=N)N)CC(c1cccc(Cl)c1Cl)C2.Cl` (stereo not shown) is 270 to 272 °C.
On the same count and under the same terms, the figure for `Cc1ccccc1C1CC(=NNC(=N)N)c2c(C)n[nH]c2C1.Cl` (stereo not shown) is 211 °C (dec.); for `Cc1cc(C)c2c(n1)CC(c1ccccc1F)CC2=NNC(=N)N.Cl` (stereo not shown) it is 232 °C (dec.); for `CCc1cn(S(C)(=O)=O)c2c1C(=NNC(=N)N)CC(c1ccccc1)C2.Cl` (stereo not shown) it is 260 °C (dec.).
`CS(=O)(=O)O.Cc1ccnc2c1C(=NNC(=N)N)CC(c1ccccc1Cl)C2` (stereo not shown) [Compound 65] had a melting point of 194 to 196 °C.
With `Cc1ccnc2c1C(=NNC(=N)N)CC(c1cc(Cl)sc1Cl)C2.Cl` (stereo not shown), the melting point is not below 300 °C.
`Cc1cnnc2c1C(=NNC(=N)N)CC(c1cc(Cl)ccc1Cl)C2.Cl` (stereo not shown) came in with a melting point of 256 to 258 °C.
Consider `Cc1cn(S(C)(=O)=O)c2c1C(=NNC(=N)N)CC(c1ccccc1)C2.Cl` (stereo not shown), for which the melting point was 260 °C (dec.).
With `Cc1ccc(F)cc1C1CC(=NNC(=N)N)c2c(C)ccnc2C1.Cl` (stereo not shown), the melting point lay within 202 to 205 °C.
On to `Cc1cc2c([nH]1)CC(c1ccccc1)CC2=NNC(=N)N.Cl` (stereo not shown), for which the melting point is 215 °C (dec.).
Compound `Cc1ccc(Cl)c(C2CC(=NNC(=N)N)c3c(C)cnnc3C2)c1.Cl` (stereo not shown) displayed a melting point of 240 to 242 °C.
On the same count and under the same terms, the figure for `Cc1ccnc2c1C(=NNC(=N)N)CC(c1cc(F)ccc1Cl)C2.Cl` (stereo not shown) is 268 °C (dec.).
For `Cl.N=C(N)N/N=C1\CC(c2ccccc2)Cc2occ(C(F)(F)F)c21` (stereo not shown), the melting point was 291 °C (dec.).
`Cc1coc2c1/C(=N/NC(=N)N)CC(c1ccccc1Cl)C2.Cl` (stereo not shown): the melting point is 300 °C (dec.).
Consider `Cc1ccnc2c1C(=NNC(=N)N)CC(c1cc(Cl)ccc1O)C2.Cl` (stereo not shown), for which the melting point was 202 °C (dec.).
Still for that read-out and setting: the figure for `Cc1ccc2c(n1)CC(c1ccccc1)CC2=NNC(=N)N.Cl` (stereo not shown) is not below 300 °C.
Turning to `Cl.N=C(N)NN=C1CC(c2ccccc2Cl)Cc2[nH]nc(-c3ccccc3)c21` (stereo not shown), the melting point was 185 °C (dec.).
For `CCOC(=O)c1coc2c1/C(=N/NC(=N)N)CC(c1ccccc1)C2.Cl` (stereo not shown), the melting point was 260 °C (dec.).

As usually defined, the inhibition is the percentage by which the read-out fell short of the control. For orientation: melting point means the temperature, or range, at which the solid turns liquid.
